Assay results taken from patent US9371265B2, “Compositions and methods related to inhibitors of JAK kinase” (EP PHARMA, INC., priority 2012, dated 2016).

Legend:
RAF1 = RAF1 (Homo sapiens, UniProt P04049); test: Kinase panel: RAF1; assay type: biochemical; conditions: 10 μM EP009
Procedure: (§1) Achieving JAK3 selectivity remains a significant challenge in the development of new small molecules for the treatment of cancer and immune-derived diseases. As such, the inventors employed cell-based screening assays of small-molecule libraries based upon the chemical scaffold of the established JAK3 inhibitor NC1153 (Stepkowski et al., J Immunol. (2005), 175(7):4236-4246) EP009 (FIG. 2A) was selected as a lead compound due to improved intrinsic stability (>95% purity in various solvents at 37° C. for 24 hours; FIG. 3) and high-degree of JAK3 selectivity. To test JAK3 versus JAK2 specificity of EP009, the IL-2/JAK3-dependent Kit225, and IL-3/JAK2-dependent BaF/3 cell lines were used. Kit225 and BaF/3 cells growing in the presence of IL-2 or IL-3, respectively, were treated with ascending concentrations of EP009 for 12 hours and cellular JAK3 and JAK2 tyrosine phosphorylation levels detected by Western blot analysis (FIGS. 2B and 2C). Following densitometric analysis, EP009 was determined to dose-dependently reduce IL-2-mediated JAK3 tyrosine phosphorylation with a cellular 50% inhibitory concentration (IC50) between 10 and 20 μM (FIG. 2B). […] To globally evaluate specificity, the inhibitory activity of EP009 was measured against a panel of protein kinases distributed throughout the kinome using the scanEDGE profiling service (KINOMEscan). […]

HEK293 = HEK293 cell viability (MTS); assay type: cell-based, human; conditions: 72 hours, concentrations giving complete loss of JAK3-dependent cell viability (0-10 μM)
Procedure: (§2) FIGS. 2A-2F. Selective inhibition of JAK3 by EP009 results in loss of JAK3-dependent tumor cell line viability with no detectable off-target effects in key cell types. (A) Chemical structure of EP009 (M.W. 224.34). (B) Kit225 or (C) BaF/3 cells cultured in the presence of IL-2 or IL-3, respectively, were treated with vehicle (PBS; lane a) or increasing amounts of EP009 (0-50 μM; lanes b-h) for 12 hours. Cells were then lysed, clarified, and immunoprecipitated (IP) with anti-JAK3 (α-JAK3) or anti-JAK2 (α-JAK2), and subjected to Western blot (WB) analysis with anti-phosphotyrosine (α-pY). Blots were stripped and reprobed with corresponding antibody to verify equivalent protein loading. […] (E) Kit225 or BaF/3 cells were cultured with increasing amounts of EP009 (0-10 μM) for 72 hours and cell viability measured with the MTS tetrazolium salt assay. Values represent mean absorbance (OD490-OD650 nm) normalized to vehicle (PBS) treated control cells, while error bars represent the standard deviation (n=3). (F) HEK293, HEPG2, or naïve primary human PBMCs were cultured with increasing amounts of EP009 (0-10 μM) for 72 hours and cell viability measured with the MTS tetrazolium salt assay. Values represent mean absorbance (OD490-OD650 nm) normalized to vehicle (PBS) treated control cells, while error bars represent the standard deviation (n=3). […]

JAK3 = JAK3 (Homo sapiens, UniProt P52333); test: IL-2-mediated JAK3 tyrosine phosphorylation in Kit225 cells (IP/Western blot, densitometry); assay type: cell-based; set-up: cellular JAK3 and JAK2 tyrosine phosphorylation levels detected by Western blot analysis; endogenous in cells; host or cells: Kit225; conditions: 12 hours, densitometric analysis, read-out: cellular IC50, IL-2-mediated JAK3 tyrosine phosphorylation
JAK3, sequence (P52333 whole entry): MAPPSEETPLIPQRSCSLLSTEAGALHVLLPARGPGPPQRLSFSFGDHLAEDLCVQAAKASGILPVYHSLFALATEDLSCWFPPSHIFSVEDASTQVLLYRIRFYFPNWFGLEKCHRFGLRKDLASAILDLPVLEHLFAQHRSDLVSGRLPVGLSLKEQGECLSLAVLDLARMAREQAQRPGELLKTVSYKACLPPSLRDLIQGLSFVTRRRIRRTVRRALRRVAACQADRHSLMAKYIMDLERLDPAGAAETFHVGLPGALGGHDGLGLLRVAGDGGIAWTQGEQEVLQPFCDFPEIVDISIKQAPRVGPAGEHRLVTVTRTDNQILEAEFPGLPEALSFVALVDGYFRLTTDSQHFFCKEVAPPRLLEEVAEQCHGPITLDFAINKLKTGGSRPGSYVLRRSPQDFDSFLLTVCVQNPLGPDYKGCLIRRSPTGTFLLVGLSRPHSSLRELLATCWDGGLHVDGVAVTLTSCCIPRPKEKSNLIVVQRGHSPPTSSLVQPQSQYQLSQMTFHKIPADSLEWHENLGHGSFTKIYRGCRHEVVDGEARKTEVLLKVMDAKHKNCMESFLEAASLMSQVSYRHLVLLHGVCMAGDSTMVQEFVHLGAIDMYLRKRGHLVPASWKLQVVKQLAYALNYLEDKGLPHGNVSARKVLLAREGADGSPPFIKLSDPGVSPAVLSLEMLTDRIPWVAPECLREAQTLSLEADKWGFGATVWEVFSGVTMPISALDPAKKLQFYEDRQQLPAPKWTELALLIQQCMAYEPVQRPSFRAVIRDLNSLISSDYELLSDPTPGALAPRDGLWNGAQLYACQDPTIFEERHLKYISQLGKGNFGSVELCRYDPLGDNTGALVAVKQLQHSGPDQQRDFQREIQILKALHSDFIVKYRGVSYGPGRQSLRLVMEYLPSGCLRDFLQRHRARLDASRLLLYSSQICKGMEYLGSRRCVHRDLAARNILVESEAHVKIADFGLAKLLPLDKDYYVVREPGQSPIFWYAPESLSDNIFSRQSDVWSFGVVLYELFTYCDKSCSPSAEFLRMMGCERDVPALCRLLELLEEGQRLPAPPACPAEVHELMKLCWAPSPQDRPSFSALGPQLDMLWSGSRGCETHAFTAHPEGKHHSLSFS
Procedure: as §2

ROCK2 = ROCK2 (Homo sapiens, UniProt O75116); test: Kinase panel: ROCK2; assay type: biochemical; conditions: 10 μM EP009
ROCK2, sequence (O75116 whole entry): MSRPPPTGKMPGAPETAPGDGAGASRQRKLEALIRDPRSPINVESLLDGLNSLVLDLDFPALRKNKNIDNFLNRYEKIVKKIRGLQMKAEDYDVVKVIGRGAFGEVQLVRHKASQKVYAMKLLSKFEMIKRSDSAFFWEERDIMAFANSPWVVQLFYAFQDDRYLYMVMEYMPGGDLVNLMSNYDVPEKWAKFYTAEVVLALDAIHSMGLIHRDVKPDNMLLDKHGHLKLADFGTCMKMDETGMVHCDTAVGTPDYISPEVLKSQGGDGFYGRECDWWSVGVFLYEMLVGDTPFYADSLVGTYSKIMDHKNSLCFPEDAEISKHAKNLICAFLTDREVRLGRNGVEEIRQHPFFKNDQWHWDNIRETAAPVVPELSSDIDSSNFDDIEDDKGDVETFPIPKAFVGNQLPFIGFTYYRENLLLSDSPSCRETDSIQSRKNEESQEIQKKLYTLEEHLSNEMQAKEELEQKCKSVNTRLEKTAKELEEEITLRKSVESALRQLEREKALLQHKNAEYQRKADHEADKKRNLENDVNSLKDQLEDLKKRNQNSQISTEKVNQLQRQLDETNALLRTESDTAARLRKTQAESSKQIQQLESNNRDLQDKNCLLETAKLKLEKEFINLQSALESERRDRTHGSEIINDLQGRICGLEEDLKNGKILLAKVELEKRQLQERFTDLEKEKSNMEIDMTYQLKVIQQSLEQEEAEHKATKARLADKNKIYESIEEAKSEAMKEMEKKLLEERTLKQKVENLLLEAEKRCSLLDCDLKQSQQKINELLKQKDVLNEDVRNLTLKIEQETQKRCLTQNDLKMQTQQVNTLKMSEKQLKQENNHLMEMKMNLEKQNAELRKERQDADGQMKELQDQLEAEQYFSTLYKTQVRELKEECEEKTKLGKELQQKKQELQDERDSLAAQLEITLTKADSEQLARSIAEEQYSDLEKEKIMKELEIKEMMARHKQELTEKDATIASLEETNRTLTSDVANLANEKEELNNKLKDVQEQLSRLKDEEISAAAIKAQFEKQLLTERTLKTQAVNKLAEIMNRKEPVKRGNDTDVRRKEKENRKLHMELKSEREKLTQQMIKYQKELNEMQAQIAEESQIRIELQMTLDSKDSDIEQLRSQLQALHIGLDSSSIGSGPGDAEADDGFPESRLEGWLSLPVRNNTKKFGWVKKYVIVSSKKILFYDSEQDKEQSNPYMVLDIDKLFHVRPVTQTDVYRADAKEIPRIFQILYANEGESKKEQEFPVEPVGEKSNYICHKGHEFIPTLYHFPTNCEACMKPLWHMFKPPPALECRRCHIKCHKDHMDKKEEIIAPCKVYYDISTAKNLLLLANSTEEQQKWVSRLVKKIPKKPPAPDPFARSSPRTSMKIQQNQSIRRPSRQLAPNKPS
Procedure: as §1

FGFR3 = FGFR3 (Homo sapiens, UniProt P22607); test: Kinase panel: FGFR3; assay type: biochemical; conditions: 10 μM EP009
FGFR3, sequence (P22607 23-806): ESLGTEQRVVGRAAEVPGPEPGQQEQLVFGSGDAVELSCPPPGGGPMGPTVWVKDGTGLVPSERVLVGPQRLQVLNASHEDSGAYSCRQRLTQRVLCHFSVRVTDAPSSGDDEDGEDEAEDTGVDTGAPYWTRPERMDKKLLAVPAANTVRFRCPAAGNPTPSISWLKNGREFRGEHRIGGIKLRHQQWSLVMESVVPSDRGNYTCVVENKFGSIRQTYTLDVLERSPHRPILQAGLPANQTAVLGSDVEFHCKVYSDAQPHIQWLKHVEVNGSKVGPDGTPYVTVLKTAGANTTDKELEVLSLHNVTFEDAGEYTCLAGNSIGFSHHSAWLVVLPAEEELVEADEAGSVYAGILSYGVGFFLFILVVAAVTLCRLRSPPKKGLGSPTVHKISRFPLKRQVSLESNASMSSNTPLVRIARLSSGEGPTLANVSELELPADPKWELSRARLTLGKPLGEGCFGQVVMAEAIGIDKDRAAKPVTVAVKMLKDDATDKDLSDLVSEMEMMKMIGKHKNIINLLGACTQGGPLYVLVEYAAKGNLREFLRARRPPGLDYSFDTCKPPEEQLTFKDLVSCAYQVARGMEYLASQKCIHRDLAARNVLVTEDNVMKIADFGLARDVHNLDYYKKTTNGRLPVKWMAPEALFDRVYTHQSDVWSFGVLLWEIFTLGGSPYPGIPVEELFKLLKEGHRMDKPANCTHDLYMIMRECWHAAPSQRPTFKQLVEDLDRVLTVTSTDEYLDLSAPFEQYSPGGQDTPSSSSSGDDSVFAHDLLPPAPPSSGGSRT
Procedure: as §1

JAK2 = target: T1, JAK2 (Mus musculus, UniProt Q62120); test: IL-3-induced JAK2 tyrosine phosphorylation in BaF/3 cells (IP/Western blot); assay type: cell-based, murine; conditions: 12 hours, concentrations up to 50 μM
T1 construct: cellular JAK3 and JAK2 tyrosine phosphorylation levels detected by Western blot analysis; endogenous in cells; host or cells: Ba/F3 (BaF/3)
T1 sequence (Q62120 whole entry): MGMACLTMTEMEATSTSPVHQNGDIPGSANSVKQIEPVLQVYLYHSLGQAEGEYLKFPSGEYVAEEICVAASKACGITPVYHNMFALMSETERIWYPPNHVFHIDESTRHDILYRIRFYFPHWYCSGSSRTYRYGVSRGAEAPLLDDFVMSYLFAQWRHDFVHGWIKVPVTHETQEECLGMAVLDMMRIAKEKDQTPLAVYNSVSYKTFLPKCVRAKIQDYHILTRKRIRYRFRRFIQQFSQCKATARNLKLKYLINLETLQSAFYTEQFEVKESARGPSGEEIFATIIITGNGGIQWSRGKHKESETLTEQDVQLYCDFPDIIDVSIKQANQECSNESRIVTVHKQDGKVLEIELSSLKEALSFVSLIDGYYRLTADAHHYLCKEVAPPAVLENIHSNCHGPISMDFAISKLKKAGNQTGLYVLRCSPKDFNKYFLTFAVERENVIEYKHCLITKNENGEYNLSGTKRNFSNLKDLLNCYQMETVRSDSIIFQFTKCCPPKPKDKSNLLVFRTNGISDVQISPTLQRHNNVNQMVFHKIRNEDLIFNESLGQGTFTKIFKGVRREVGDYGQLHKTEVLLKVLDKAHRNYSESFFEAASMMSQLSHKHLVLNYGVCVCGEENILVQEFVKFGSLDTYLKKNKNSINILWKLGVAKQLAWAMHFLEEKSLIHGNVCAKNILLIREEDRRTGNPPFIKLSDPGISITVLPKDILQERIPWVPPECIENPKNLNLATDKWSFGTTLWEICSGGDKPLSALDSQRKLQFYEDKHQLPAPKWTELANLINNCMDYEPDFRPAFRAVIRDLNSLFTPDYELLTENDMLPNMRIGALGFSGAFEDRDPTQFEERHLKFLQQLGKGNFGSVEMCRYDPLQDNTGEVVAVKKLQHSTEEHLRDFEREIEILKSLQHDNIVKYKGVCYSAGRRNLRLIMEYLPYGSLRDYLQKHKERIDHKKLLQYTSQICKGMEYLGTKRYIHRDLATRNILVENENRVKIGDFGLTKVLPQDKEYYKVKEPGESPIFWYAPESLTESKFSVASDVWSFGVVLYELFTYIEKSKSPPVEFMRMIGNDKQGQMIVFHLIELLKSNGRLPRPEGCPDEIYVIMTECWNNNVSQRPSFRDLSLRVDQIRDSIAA
Procedure: as §2

RAF1, sequence (P04049 whole entry): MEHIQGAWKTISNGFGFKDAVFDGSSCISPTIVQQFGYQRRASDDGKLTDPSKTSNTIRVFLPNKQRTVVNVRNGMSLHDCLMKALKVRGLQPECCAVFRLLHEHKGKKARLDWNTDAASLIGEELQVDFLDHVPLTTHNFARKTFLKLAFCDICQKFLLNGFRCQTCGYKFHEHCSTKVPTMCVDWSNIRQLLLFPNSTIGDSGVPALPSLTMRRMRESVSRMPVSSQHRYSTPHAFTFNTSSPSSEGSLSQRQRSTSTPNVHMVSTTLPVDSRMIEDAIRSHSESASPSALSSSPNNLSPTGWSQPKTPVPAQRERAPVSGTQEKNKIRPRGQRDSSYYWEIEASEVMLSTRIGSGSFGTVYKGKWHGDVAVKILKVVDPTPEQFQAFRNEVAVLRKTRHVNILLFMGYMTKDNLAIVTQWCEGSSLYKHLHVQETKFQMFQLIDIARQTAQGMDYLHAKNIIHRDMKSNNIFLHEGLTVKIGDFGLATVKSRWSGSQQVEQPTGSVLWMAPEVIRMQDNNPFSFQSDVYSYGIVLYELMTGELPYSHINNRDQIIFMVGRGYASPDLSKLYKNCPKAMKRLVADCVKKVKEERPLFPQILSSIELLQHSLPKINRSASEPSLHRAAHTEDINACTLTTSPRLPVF

C=C1CCCCCCCCCC(CO)C1=O (stereo not drawn) [EP009, 2-(Hydroxymethyl)-12-methylenecyclododecanone]
Kinase Activity (% of Control) (RAF1): 97 % of Control
effect on HEK293 cell viability (HEK293): no detectable loss of cell viability
IC50 (JAK3): 10 to 20 µM
Kinase Activity (% of Control) (ROCK2): 99 % of Control
Kinase Activity (% of Control) (FGFR3): 100 % of Control
effect on IL-3-induced JAK2 tyrosine phosphorylation (JAK2): no detectable effect
